target: T1, ATR kinase (Homo sapiens, UniProt Q13535); test: Inhibitory effect on ATR kinase activity (Caliper mobility shift, FAM-labeled RAD17 peptide substrate); assay type: biochemical; conditions: 1 nM ATR kinase (Eurofins), 28°C for 3 hours, maximum concentration 1 µM, 10 concentrations, read-out: ATR kinase IC50
T1 construct: purchased Eurofins 14-953
Experimental: Test Example 1: Inhibitory effect of the compounds of the present disclosure on ATR kinase activity
Test compounds to be tested were serially diluted with DMSO (maximum concentration 1 µM, 10 concentrations with 3-fold serial dilution) and added to the wells of a 384-well reaction plate (Corning, #4512). 1 nM ATR kinase (Eurofins, #14-953), 5 mM substrate (FAM-labeled RAD17 peptide, FAM-ASELPASQPQPFSAKKK), 5 mM ATP and the compounds with corresponding concentrations reacted in a kinase reaction solution (50 mM HEPES, pH 7.5; 0.0015% Brij-35; 10 mM MnCl2, total volume of 20 µL) at 28°C for 3 hours. The reaction was terminated by adding 30 µL of stop solution (100 mM HEPES, pH 7.5; 0.015% Brij-35; 0.2% Coating Reagent #3, PerkinElmer; 50 mM EDTA). The reaction plate was placed on a Caliper instrument (PerkinElmer) for testing. The relative inhibitory activity of each compound concentration group was calculated using the following formula: % Inhibition = (Conversion rate of the blank control group without compound added - Conversion rate of the test compound group) / (Conversion rate of the blank control group - […]). The IC50 values were calculated using GraphPad analysis and fitted. […] Table 1. Inhibitory effect (IC50) of compounds on ATR kinase activity.

T1 sequence (Q13535 whole entry): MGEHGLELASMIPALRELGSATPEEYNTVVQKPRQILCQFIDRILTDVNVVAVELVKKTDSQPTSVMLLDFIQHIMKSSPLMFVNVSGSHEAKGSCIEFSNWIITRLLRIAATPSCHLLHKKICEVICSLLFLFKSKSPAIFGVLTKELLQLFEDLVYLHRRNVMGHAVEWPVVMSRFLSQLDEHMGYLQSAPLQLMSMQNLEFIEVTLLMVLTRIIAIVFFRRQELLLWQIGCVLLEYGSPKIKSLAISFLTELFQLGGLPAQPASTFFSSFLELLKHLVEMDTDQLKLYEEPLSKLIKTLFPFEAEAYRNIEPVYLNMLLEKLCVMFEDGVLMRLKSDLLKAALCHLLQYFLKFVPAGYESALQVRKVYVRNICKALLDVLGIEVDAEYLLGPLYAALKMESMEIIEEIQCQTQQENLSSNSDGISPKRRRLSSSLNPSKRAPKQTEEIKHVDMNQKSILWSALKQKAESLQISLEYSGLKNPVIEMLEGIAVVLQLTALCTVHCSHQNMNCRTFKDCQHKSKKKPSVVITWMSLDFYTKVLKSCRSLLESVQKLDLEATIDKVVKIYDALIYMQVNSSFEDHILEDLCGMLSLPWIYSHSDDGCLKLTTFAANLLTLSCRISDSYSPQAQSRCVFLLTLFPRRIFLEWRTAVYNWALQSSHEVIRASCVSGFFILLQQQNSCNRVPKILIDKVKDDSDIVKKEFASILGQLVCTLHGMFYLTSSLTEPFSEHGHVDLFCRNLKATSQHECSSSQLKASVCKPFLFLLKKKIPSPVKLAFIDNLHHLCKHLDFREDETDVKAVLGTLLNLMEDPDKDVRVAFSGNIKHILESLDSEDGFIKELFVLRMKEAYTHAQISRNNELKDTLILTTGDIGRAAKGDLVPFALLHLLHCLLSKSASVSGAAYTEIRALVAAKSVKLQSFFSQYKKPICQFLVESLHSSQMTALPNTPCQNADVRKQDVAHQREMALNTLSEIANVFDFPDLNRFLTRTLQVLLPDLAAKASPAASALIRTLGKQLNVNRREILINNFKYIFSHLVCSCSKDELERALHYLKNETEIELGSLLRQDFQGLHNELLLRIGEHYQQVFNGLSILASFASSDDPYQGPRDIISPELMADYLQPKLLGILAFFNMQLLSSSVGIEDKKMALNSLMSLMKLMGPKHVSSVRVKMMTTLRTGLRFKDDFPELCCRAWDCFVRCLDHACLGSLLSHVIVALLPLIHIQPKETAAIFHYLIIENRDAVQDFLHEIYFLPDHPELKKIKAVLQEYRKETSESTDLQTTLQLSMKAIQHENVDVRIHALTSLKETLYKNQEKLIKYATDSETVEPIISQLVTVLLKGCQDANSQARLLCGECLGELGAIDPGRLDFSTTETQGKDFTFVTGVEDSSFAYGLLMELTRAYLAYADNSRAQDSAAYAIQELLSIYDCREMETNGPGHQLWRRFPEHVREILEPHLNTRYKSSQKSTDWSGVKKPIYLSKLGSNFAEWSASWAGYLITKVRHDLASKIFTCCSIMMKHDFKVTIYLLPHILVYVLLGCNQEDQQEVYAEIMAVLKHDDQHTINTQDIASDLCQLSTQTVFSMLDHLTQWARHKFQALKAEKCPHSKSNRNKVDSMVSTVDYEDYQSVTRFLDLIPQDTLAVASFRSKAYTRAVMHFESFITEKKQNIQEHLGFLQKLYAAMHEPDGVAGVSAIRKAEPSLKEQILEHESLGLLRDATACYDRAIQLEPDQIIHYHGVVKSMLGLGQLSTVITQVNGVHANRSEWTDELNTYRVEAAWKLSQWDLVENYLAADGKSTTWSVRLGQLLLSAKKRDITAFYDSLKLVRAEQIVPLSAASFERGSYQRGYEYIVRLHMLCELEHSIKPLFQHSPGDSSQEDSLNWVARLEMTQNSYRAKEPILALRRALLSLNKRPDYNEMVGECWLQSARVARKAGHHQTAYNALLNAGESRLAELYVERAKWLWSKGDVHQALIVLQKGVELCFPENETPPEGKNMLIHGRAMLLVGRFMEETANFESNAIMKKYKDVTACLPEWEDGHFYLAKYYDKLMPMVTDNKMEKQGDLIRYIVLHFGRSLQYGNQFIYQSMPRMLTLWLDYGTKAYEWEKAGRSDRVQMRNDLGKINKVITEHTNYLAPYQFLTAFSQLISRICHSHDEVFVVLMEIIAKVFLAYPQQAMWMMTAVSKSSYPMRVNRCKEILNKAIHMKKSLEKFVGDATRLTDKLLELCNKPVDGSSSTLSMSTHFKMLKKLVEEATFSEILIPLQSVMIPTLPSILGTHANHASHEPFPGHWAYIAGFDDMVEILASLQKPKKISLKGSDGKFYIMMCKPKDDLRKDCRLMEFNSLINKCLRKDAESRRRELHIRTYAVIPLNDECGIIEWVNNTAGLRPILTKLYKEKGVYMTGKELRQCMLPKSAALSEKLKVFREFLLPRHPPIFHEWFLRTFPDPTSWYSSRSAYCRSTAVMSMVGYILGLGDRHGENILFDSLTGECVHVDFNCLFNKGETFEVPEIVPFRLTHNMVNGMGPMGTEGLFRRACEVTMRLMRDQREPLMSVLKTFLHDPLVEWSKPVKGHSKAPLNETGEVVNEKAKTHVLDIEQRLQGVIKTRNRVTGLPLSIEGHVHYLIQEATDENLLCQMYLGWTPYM
T1 sequence (Q8WXE1 whole entry partner): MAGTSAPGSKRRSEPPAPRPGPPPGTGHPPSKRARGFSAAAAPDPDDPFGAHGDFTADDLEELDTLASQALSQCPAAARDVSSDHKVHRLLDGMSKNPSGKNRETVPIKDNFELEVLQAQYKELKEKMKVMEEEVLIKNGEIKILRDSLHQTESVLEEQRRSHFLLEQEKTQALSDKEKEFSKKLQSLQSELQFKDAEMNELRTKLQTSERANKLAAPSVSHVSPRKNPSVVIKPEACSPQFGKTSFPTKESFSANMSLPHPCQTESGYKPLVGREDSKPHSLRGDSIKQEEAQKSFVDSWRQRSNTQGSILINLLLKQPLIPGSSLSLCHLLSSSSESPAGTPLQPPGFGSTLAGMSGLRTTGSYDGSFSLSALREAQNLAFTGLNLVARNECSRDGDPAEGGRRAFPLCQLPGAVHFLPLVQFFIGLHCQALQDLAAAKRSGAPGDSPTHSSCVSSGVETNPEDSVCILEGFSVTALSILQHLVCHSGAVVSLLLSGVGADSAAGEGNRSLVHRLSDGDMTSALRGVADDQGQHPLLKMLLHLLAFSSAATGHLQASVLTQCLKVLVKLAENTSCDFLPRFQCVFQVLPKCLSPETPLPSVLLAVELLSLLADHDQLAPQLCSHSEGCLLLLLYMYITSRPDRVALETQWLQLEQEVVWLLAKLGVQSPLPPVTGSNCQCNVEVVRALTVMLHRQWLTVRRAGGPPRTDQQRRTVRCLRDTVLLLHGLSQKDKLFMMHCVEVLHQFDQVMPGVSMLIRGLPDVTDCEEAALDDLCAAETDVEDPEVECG

IC50 [nM] | SMILES
< 10 | CC1c2cc(N3CCOC[C@H]3C)nc3c2c(nn3-c2cc[nH]n2)CCN1C (single isomer, unassigned) [Compound 35B]
1000 to 2500 | C[C@@H]1COCCN1c1cc2c3c(n1)c(-c1cc[nH]n1)nn3CCN2 [Compound 61, (R)-4-(1-(1H-pyrazol-3-yl)-4,5-dihydro-3H-2,2a,5,8-tetraazaacenaphthen-7-yl)-3-methylmorpholine]

same assay, conditions: read-out: ATR kinase IC50, 1 nM ATR kinase (Eurofins), 28°C for 3 hours, maximum concentration 1 µM, 10 concentrations

SMILES | IC50 [nM]
C[C@@H]1COCCN1c1cc2c3c(n1)c(-c1cc[nH]n1)nn3CCC(=O)N2C1CC2(C1)CC(C)(O)C2 (stereo partly drawn) [Compound 94, (R)-6-(6-hydroxy-6-methylspiro[3.3]hept-2-yl)-4-(3-methylmorpholinyl)-2-(1H-pyrazol-3-yl)-8,9-dihydro-1,3,6,9a-tetraazabenzo[cd]azulene-7(6H)-one] | 10 to 100

tested on: LoVo cells; test: LoVo cell proliferation assay (CellTiter-Glo); assay type: cell-based; conditions: Homo sapiens, LoVo, 120 h, LoVo cells, 2,000 cells per well, 5 days incubation, CellTiter-Glo; maximum concentration 10 µM, 9 concentrations; read-out: LoVo IC50
Experimental: Test Example 2: LoVo cell proliferation assay
LoVo (ATCC, #CRL-229) cells in logarithmic growth phase were digested, counted, and plated into 96-well cell culture plates at 2,000 cells per well. The plates containing cells were incubated overnight at 37°C in a 5% CO2 incubator, and then test compounds with 3-fold gradient dilutions (maximum concentration: 10 µM, 9 concentrations) were added. DMSO was used as a blank control. After the LoVo cells containing the compounds or DMSO were incubated for an additional 5 days, an equal volume of CellTiter-Glo reagent (Promega, #7573) was added. After incubation at room temperature for 30 minutes, chemiluminescence was read using an Envision 2105 (PerkinElmer). The cell proliferation inhibition rate (%) for wells treated with each concentration of the compounds was calculated using the following formula. Then, with compound concentration as the horizontal axis and cell proliferation inhibition rate (%) as the vertical axis, GraphPad software was used to plot the data and determine the IC50 values of the test compounds. The results are shown in Table 2, wherein the IC50 ranges are defined as follows: A: ≤ 100 nM; 1000 nM ≥ B > 100 nM; C > 1000 nM.
Cell proliferation inhibition (%) = (1 - luminescence value of compound-treated group / average luminescence value of DMSO blank control group) × 100. Table 2. Inhibitory effect of compounds on LoVo growth

IC50 [nM] | SMILES
> 1000 | C[C@@H]1COCCN1c1cc2c3c(n1)c(-c1cc[nH]n1)nn3CCC2(O)C1CCOCC1 (single isomer, unassigned) [Compound 73A]
> 1000 | C[C@@H]1COCCN1c1cc2c3c(n1)c(-c1cc[nH]n1)nn3CCC2(O)c1cnn(C)c1 (single isomer, unassigned) [Compound 74A]
< 100 | CC(C)C1c2cc(N3CCOC[C@H]3C)nc3c2c(nn3-c2cc[nH]n2)CCN1S(C)(=O)=O (single isomer, unassigned) [Compound 140A]
100 to 1000 | C[C@@H]1COCCN1c1cc2c3c(n1)c(-c1cc[nH]n1)nn3CCC(=O)N2[C@@H](C)CC(F)(F)F [Compound 111A, 4-((R)-3-methylmorpholino)-2-(1H-pyrazol-3-yl)-6-((S)-4,4,4-trifluorobutan-2-yl)-8,9-dihydro-1,3,6,9a-tetraazabenzo[cd]azulene-7(6H)-one]
100 to 1000 | C[C@@H]1COCCN1c1cc2c3c(n1)c(-c1cc[nH]n1)nn3CCC(=O)N2[C@H](C)CC(F)(F)F [Compound 111B, 4-((R)-3-methylmorpholino)-2-(1H-pyrazol-3-yl)-6-((R)-4,4,4-trifluorobutan-2-yl)-8,9-dihydro-1,3,6,9a-tetraazabenzo[cd]azulene-7(6H)-one]

More lines, now with the values behind:

SMILES | IC50 [nM]
CC1c2cc(N3CCOC[C@H]3C)nc3c2c(nn3-c2cc[nH]n2)CCN1CC(F)F (single isomer, unassigned) [Compound 45A] | 100 to 1000
CC1c2cc(N3CCOC[C@H]3C)nc3c2c(nn3-c2cc[nH]n2)CCN1S(C)(=N)=O (single isomer, unassigned) [Compound 46A] | 100 to 1000
CC1c2cc(N3CCOC[C@H]3C)nc3c(-c4cc[nH]n4)nn(c23)CCN1C (single isomer, unassigned) [Compound 59A] | 100 to 1000
C[C@@H]1COCCN1c1cc2c3c(nn(-c4cc[nH]n4)c3n1)CCN(S(=O)(=O)C(F)(F)F)C2 [Compound 25, (R)-4-(2-(1H-pyrazol-3-yl)-7-((trifluoromethyl)sulfonyl)-6,7,8,9-tetrahydro-2H-1,2,3,7-tetraazabenzo[cd]azulen-4-yl)-3-methylmorpholine] | < 100
C[C@@H]1COCCN1c1cc2c3c(nn(-c4cc[nH]n4)c3n1)CCN(S(=O)(=O)C1COC1)C2 [Compound 26, (R)-3-methyl-4-(7-(oxetan-3-ylsulfonyl)-2-(1H-pyrazol-3-yl)-6,7,8,9-tetrahydro-2H-1,2,3,7-tetraazabenzo[cd]azulen-4-yl)morpholine] | 100 to 1000
CC1c2cc(N3CCOC[C@H]3C)nc3c2c(nn3-c2cc[nH]n2)CCN1c1cnn(C)c1 (stereo partly drawn) [Compound 43, (3R)-3-methyl-4-(6-methyl-7-(1-methyl-1H-pyrazol-4-yl)-2-(1H-pyrazol-3-yl)-6,7,8,9-tetrahydro-2H-1,2,3,7-tetraazabenzo[cd]azulen-4-yl)morpholine] | 100 to 1000
C[C@@H]1COCCN1c1cc2c3c(n1)c(-c1cc[nH]n1)nn3CCNC2 [Compound 51, (R)-4-(2-(1H-pyrazol-3-yl)-6,7,8,9-tetrahydro-1,3,7,9a-tetraazabenzo[cd]azulen-4-yl)-3-methylmorpholine] | 100 to 1000
CC1c2cc(N3CCOC[C@H]3C)nc3c(-c4cc[nH]n4)nn(c23)CCN1S(C)(=O)=O (stereo partly drawn) [Compound 60, (3R)-3-methyl-4-(6-methyl-7-(methylsulfonyl)-2-(1H-pyrazol-3-yl)-6,7,8,9-tetrahydro-1,3,7,9a-tetraazabenzo[cd]azulen-4-yl)morpholine] | 100 to 1000
C[C@@H]1COCCN1c1cc2c3c(n1)c(-c1cc[nH]n1)nn3CCN2S(C)(=O)=O [Compound 64] | 100 to 1000
C[C@@H]1COCCN1c1cc2c3c(n1)c(-c1cc[nH]n1)nn3CCC2(C)O (stereo partly drawn) [Compound 71, 6-methyl-4-((R)-3-methylmorpholino)-2-(1H-pyrazol-3-yl)-7,8-dihydro-6H-pyrazolo[4,5,1-ij][1, 7]naphthyridin-6-ol] | 100 to 1000
C[C@@H]1COCCN1c1cc2c3c(nn(-c4cc[nH]n4)c3n1)CCN(S(=O)(=O)C1CC1)C2C1CC1 (stereo partly drawn) [Compound 143, (3R)-4-(6-cyclopropyl-7-(cyclopropylsulfonyl)-2-(1H-pyrazol-3-yl)-6,7,8,9-tetrahydro-2H-1,2,3,7-tetraazabenzo[cd]-azulen-4-yl)-3-methylmorpholine] | 100 to 1000
C[C@@H]1COCCN1c1cc2c3c(nn(-c4cc[nH]n4)c3n1)CCOC2C(F)F (stereo partly drawn) [Compound 148, 6-(difluoromethyl)-4-((R)-3-methylmorpholino)-2-(1H-pyrazol-3-yl)-2,6,8,9-tetrahydro-7-oxa-1,2,3-triazabenzo[cd]azulene] | < 100
CC1c2cc(N3CCOC[C@H]3C)nc3c2c(nn3-c2cc[nH]n2)CCN1S(N)(=O)=O (stereo partly drawn) [Compound 150, 6-methyl-4-((R)-3-methylmorpholino)-2-(1H-pyrazol-3-yl)-2,6,8,9-tetrahydro-7H-1,2,3,7-tetraazabenzene[cd]azulene-7-sulfonamide] | 100 to 1000

same assay, conditions: Homo sapiens, LoVo, 120 h, read-out: LoVo IC50 (nM), LoVo cells, 2,000 cells per well, 5 days incubation, CellTiter-Glo; maximum concentration 10 µM, 9 concentrations

SMILES | IC50 [nM]
C[C@@H]1COCCN1c1cc2c3c(nn(-c4cc[nH]n4)c3n1)CCC(=O)N2C12CC(C1)C2 [Compound 76, (R)-6-(bicyclo[1.1.1]pentan-1-yl)-4-(3-methylmorpholinyl)-2-(1H-pyrazol-3-yl)-2,6,8,9-tetrahydro-7H-1,2,3,6-tetraazabenzo[cd]azulene-7-one] | < 100
C[C@@H]1COCCN1c1cc2c3c(nn(-c4cc[nH]n4)c3n1)CCC(=O)N2C1(CF)CC1 [Compound 80, (R)-6-(1-(fluoromethyl)cyclopropyl)-4-(3-methylmorpholinyl)-2-(1H-pyrazol-3-yl)-2,6,8,9-tetrahydro-7H-1,2,3,6-tetraazabenzo[cd]azulene-7-one] | < 100

same assay, conditions: LoVo cells, 2,000 cells per well, 5 days incubation, CellTiter-Glo; maximum concentration 10 µM, 9 concentrations; read-out: LoVo IC50

IC50 [nM] | SMILES
> 1000 | C[C@@H]1COCCN1c1cc2c3c(n1)c(-c1cc[nH]n1)nn3CCC2(O)C1CCOCC1 (single isomer, unassigned) [Compound 73B]
> 1000 | C[C@@H]1COCCN1c1cc2c3c(n1)c(-c1cc[nH]n1)nn3CCC2(O)c1cnn(C)c1 (single isomer, unassigned) [Compound 74B]
100 to 1000 | CC(C)C1c2cc(N3CCOC[C@H]3C)nc3c2c(nn3-c2cc[nH]n2)CCN1S(C)(=O)=O (single isomer, unassigned) [Compound 140B]

The remaining lines, values behind:

SMILES | IC50 [nM]
CC1c2cc(N3CCOC[C@H]3C)nc3c2c(nn3-c2cc[nH]n2)CCN1CC1COC1 (single isomer, unassigned) [Compound 44B] | 100 to 1000
CC1c2cc(N3CCOC[C@H]3C)nc3c2c(nn3-c2cc[nH]n2)CCN1CC(F)F (single isomer, unassigned) [Compound 45B] | 100 to 1000
CC1c2cc(N3CCOC[C@H]3C)nc3c2c(nn3-c2cc[nH]n2)CCN1S(C)(=N)=O (single isomer, unassigned) [Compound 46B] | 100 to 1000
CC1c2cc(N3CCOC[C@H]3C)nc3c2c(nn3-c2cc[nH]n2)CCN1S(C)(=N)=O (single isomer, unassigned) [Compound 46D] | 100 to 1000
CC1c2cc(N3CCOC[C@H]3C)nc3c(-c4cc[nH]n4)nn(c23)CCN1C (single isomer, unassigned) [Compound 59B] | 100 to 1000

— patent EP4692090A1 (Shanghai Fosun Pharmaceutical (Group) Co., Ltd., priority 2023, dated 2024)
